The values that follow are results of earlier work, collected in patent US20250278807A1, “MODERN MONETARY THEORY AND TRANSLATIONAL SCIENTIFIC RESEARCH” (priority 2025, published 2025).

Like-named read-outs stand apart in the source and are kept apart here.

Data set [1] relates to chronic lumbar radicular pain. The following applies: phase II trials, versus placebo.
Data set [2] has as its target T1, beta amyloid peptide (1-40) aggregates (Homo sapiens, UniProt P05067).
T1 construct: beta amyloid peptide (1-40)
To be noted: in vitro, aggregates formed with calcium ions; loss of Thioflavin T fluorescence.

The conditions of data set [3]: in vivo.
Another data set concerns thoracic atheroma. To be noted: administered intraperitoneally, cholesterol-fed rabbits.
Data set [4] has as its system wide variety of cancer cells. To be noted: in vivo.
The test system of data set [5] is wide variety of cancer cells. To be noted: in vitro.
For data set [6], the system named is other malignant cell cultures. The following applies: in vitro.
For data set [7] the following is noted: in vivo. The source holds these as a separate data set.

T1 sequence (P05067 672-711 limits assumed): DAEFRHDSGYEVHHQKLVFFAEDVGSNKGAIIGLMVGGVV

For `COc1c([C@H]2[C@H](C(=O)Nc3ccnc(C(N)=O)c3)O[C@@](C)(C(F)(F)F)[C@H]2C)ccc(F)c1F` [suzetrigine], the “efficacy in chronic lumbar radicular pain” value in data set [1] is “no better efficacy than placebo”.

As to `NCCCC[C@H](N)C(=O)O` [L-lysine], in the data set with blood glucose (concomitant administration of glucose with L-lysine), the “effect on absorption of glucose” value is given as “decrease the absorption of glucose”. Moreover, in the data set on blood glucose (in vivo, po), the oral bioavailability entry was “well established”. In addition, in the data set with blood glucose (oral administration), the “effect on blood glucose” value is reported as “lower blood glucose”.

As to `O=C(O)CC(O)(CC(=O)O)C(=O)O` [citrate], the “dissolution of beta amyloid aggregates” value in [2] is listed as “can be dissolved”.

As to `O=[14CH][C@H](O)[C@H](O)[C@H](O)CO` [D-ribose-1-C^14], in [3], the excretion after infusion result is on record as “excreted unchanged in the urine”.

For `O=C([O-])CC(O)(CC(=O)[O-])C(=O)[O-].[Na+].[Na+].[Na+]` [sodium citrate], the “effect on thoracic atheroma” value with thoracic atheroma was “decreased thoracic atheroma”.

Consider Choline citrate, for which the “effect on thoracic atheroma” value in the data set on thoracic atheroma is “decreased thoracic atheroma”.

For `C[C@@H](O)C(=O)O[C@H](C)C(=O)O` [DLAD, D-Lactic Acid Dimer], the “inhibition of growth of cancer cells” value in data set [4] and in [5] was “inhibit growth” throughout. Moreover, the “inhibition of melanoma cell proliferation” value with melanoma cell (compared to L-lactic acid dimer (P<0.0001)) is on record as “conclusively shown”. Further, in the data set with melanoma cell (pH 7), the “efficacy at pH 7” value is reported as “lost efficacy”. Also, the “inhibition of growth of other malignant cell cultures” value in data set [6] is “inhibit growth”. In addition, the “inhibition of growth of melanoma tumors” value in the data set on melanoma tumors (in vivo) is given as “inhibit growth”. The tumoricidal activity entry in the data set with melanoma tumors (intralesional application) is “dose response tumoricidal activity”.

`CCN(CC)CCOC(=O)c1ccc(N)cc1` [Procaine]: in data set [7], the oral bioavailability result is recorded as “orally bioavailable”.

As for `O=CC[C@@H](O)[C@H](O)[C@H](O)CO` [2DG, 2-Deoxy-D-Glucose], the “inhibition of growth of cancer cells” value in data set [4] and in data set [5] was “inhibit growth” throughout.
